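Cells were grown in 96-well plates and exposed to each compound for 48 hours at five concentrations; endpoints were interpolated linearly between bracketing concentrations, or set to the highest concentration if not reached. TGI denotes the concentration required for complete inhibition of growth.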
Experiments:
Assay in all cases: inhibition of tumour cell growth, NCI panel, 48 h
786-0 renal = system: 786-0 renal
A498 renal = system: A498 renal
A549 NSCLC = system: A549 NSCLC
ACHN renal = system: ACHN renal
BT-549 breast = system: BT-549 breast
CAKI-1 renal = system: CAKI-1 renal
CCRF-CEM leukemia = system: CCRF-CEM leukemia
COLO 205 colon = system: COLO 205 colon
DMS 114 small cell lung = system: DMS 114 small cell lung
DU-145 prostate = system: DU-145 prostate
EKVX NSCLC = system: EKVX NSCLC
HCC-2998 colon = system: HCC-2998 colon
HCT-116 colon = system: HCT-116 colon
HCT-15 colon = system: HCT-15 colon
HOP-62 NSCLC = system: HOP-62 NSCLC
HOP-92 NSCLC = system: HOP-92 NSCLC
HS 578T breast = system: HS 578T breast
HT29 colon = system: HT29 colon
IGROV1 ovarian = system: IGROV1 ovarian
K-562 leukemia = system: K-562 leukemia
KM12 colon = system: KM12 colon
KM20L2 colon = system: KM20L2 colon
LOX IMVI melanoma = system: LOX IMVI melanoma
LXFL 529 NSCLC = system: LXFL 529 NSCLC
M14 melanoma = system: M14 melanoma
MALME-3M melanoma = system: MALME-3M melanoma
MCF7 breast = system: MCF7 breast
MDA-MB-231 breast = system: MDA-MB-231 breast
MDA-MB-435 = system: MDA-MB-435
MDA-N = system: MDA-N
MOLT-4 leukemia = system: MOLT-4 leukemia
NCI-H226 lung = system: NCI-H226 lung
NCI-H23 lung = system: NCI-H23 lung
NCI-H460 lung = system: NCI-H460 lung
NCI-H522 lung = system: NCI-H522 lung
NCI/ADR-RES ovarian = system: NCI/ADR-RES ovarian
OVCAR-3 ovarian = system: OVCAR-3 ovarian
OVCAR-5 ovarian = system: OVCAR-5 ovarian
OVCAR-8 ovarian = system: OVCAR-8 ovarian
PC-3 prostate = system: PC-3 prostate
RPMI-8226 leukemia = system: RPMI-8226 leukemia
RXF 393 renal = system: RXF 393 renal
SF-268 CNS = system: SF-268 CNS
SF-295 CNS = system: SF-295 CNS
SF-539 CNS = system: SF-539 CNS
SK-MEL-2 melanoma = system: SK-MEL-2 melanoma
SK-MEL-28 melanoma = system: SK-MEL-28 melanoma
SK-MEL-5 melanoma = system: SK-MEL-5 melanoma
SK-OV-3 ovarian = system: SK-OV-3 ovarian
SN12C renal = system: SN12C renal
SNB-19 CNS = system: SNB-19 CNS
SNB-75 CNS = system: SNB-75 CNS
SNB-78 CNS = system: SNB-78 CNS
SR leukemia = system: SR leukemia
SW-620 colon = system: SW-620 colon
T-47D breast = system: T-47D breast
TK-10 renal = system: TK-10 renal
U251 CNS = system: U251 CNS
UACC-257 melanoma = system: UACC-257 melanoma
UACC-62 melanoma = system: UACC-62 melanoma
UO-31 renal = system: UO-31 renal
XF 498 CNS = system: XF 498 CNS

## Cc1[nH]n(C(=O)c2ccccc2O)c(=O)c1/C=C1\C(=O)C=Cc2ccccc21
786-0 renal
  TGI: 10.1 µM
A498 renal
  TGI: 11.2 µM
A549 NSCLC
  TGI: 38.5 µM
ACHN renal
  TGI: 12.8 µM
BT-549 breast
  TGI: 73 µM
CAKI-1 renal
  TGI: 6.64 µM
CCRF-CEM leukemia
  TGI: > 36.4 µM
COLO 205 colon
  TGI: 13.1 µM
DMS 114 small cell lung
  TGI: 0.801 µM
DU-145 prostate
  TGI: 48.6 µM
EKVX NSCLC
  TGI: 19.4 µM
HCC-2998 colon
  TGI: > 71.7 µM
HCT-116 colon
  TGI: > 45.5 µM
HCT-15 colon
  TGI: > 100 µM
HOP-62 NSCLC
  TGI: 6.64 µM
HOP-92 NSCLC
  TGI: 28.7 µM
HS 578T breast
  TGI: > 100 µM
HT29 colon
  TGI: > 81 µM
IGROV1 ovarian
  TGI: 11.5 µM
K-562 leukemia
  TGI: > 44 µM
KM12 colon
  TGI: > 74.1 µM
KM20L2 colon
  TGI: 75.6 µM
LOX IMVI melanoma
  TGI: 8.79 µM
LXFL 529 NSCLC
  TGI: 42.4 µM
M14 melanoma
  TGI: 4.63 µM
MALME-3M melanoma
  TGI: 16.5 µM
MCF7 breast
  TGI: 15.1 µM
MDA-MB-231 breast
  TGI: 26.8 µM
MDA-MB-435
  TGI: 79.7 µM
MDA-N
  TGI: > 100 µM
MOLT-4 leukemia
  TGI: > 100 µM
NCI-H226 lung
  TGI: 8.57 µM
NCI-H23 lung
  TGI: 9.99 µM
NCI-H460 lung
  TGI: 9.94 µM
NCI-H522 lung
  TGI: 15.1 µM
NCI/ADR-RES ovarian
  TGI: 11 µM
OVCAR-3 ovarian
  TGI: 1.2 µM
OVCAR-5 ovarian
  TGI: > 64.9 µM
OVCAR-8 ovarian
  TGI: 28.5 µM
PC-3 prostate
  TGI: 23 µM
RPMI-8226 leukemia
  TGI: 31.1 µM
RXF 393 renal
  TGI: 18.8 µM
SF-268 CNS
  TGI: 31 µM
SF-295 CNS
  TGI: 26.4 µM
SF-539 CNS
  TGI: 3.35 µM
SK-MEL-2 melanoma
  TGI: 17.2 µM
SK-MEL-28 melanoma
  TGI: 71.6 µM
SK-MEL-5 melanoma
  TGI: 4.26 µM
SK-OV-3 ovarian
  TGI: 22.1 µM
SN12C renal
  TGI: 13.6 µM
SNB-19 CNS
  TGI: 64.3 µM
SNB-75 CNS
  TGI: 10.4 µM
SNB-78 CNS
  TGI: 98.8 µM
SR leukemia
  TGI: > 100 µM
SW-620 colon
  TGI: > 100 µM
T-47D breast
  TGI: > 100 µM
TK-10 renal
  TGI: > 100 µM
U251 CNS
  TGI: 40.7 µM
UACC-257 melanoma
  TGI: 26.6 µM
UACC-62 melanoma
  TGI: 2.36 µM
UO-31 renal
  TGI: 13.2 µM
XF 498 CNS
  TGI: 29 µM
